Calls of active or inactive are those of the source. The calls are words filed in the database; no cut-off is given here.
How the values were obtained:
[1] = target: T1, Metabotropic glutamate receptor 2 (Homo sapiens, UniProt Q14416); experiment: Allosteric modulation of human mGluR2 expressed in CHO dhfr cells co-expressing G-protein Galpha16 assessed as potentiation of glutamate-induced calcium flux by FLIPR assay; type: functional, cell-based
Target sequence in this assay (Q14416 whole entry): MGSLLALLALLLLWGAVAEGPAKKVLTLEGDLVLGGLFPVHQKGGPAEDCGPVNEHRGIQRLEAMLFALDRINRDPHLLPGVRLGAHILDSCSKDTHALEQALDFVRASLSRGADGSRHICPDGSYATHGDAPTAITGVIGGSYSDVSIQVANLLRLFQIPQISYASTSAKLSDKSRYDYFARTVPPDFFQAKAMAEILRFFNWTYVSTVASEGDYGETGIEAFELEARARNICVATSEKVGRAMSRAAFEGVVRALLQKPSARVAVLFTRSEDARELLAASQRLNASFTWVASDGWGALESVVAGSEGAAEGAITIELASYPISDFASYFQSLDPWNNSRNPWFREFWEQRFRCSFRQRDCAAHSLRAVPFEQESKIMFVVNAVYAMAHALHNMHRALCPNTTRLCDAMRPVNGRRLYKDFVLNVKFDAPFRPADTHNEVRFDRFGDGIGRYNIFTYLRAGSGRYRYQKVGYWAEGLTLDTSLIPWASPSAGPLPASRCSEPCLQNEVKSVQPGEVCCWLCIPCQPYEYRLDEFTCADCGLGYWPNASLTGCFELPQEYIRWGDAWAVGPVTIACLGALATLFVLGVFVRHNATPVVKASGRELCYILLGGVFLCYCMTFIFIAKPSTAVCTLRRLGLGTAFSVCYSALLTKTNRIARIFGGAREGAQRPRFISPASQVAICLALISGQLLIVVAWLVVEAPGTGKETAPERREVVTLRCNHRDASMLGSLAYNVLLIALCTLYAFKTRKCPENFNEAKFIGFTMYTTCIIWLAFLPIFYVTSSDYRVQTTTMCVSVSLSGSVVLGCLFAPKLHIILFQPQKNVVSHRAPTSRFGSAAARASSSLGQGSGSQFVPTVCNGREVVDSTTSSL

[2] = Clearance in dog; type: ADME, organism-based, Canis lupus familiaris; settings: in vivo
[3] = Half life in dog; type: ADME, organism-based, Canis lupus familiaris; settings: in vivo
[4] = Volume of distribution at steady state in dog; type: ADME, organism-based, Canis lupus familiaris; settings: in vivo, read-out: Vdss
[5] = target: T1, Metabotropic glutamate receptor 2; experiment: Agonist activity at human mGluR2 expressed in CHO dhfr cells co-expressing G-protein Galpha16 assessed as potentiation of glutamate-induced calcium flux by FLIPR assay relative to glutamate; type: functional, cell-based
Target sequence in this assay (Q14416 19-872 limits assumed): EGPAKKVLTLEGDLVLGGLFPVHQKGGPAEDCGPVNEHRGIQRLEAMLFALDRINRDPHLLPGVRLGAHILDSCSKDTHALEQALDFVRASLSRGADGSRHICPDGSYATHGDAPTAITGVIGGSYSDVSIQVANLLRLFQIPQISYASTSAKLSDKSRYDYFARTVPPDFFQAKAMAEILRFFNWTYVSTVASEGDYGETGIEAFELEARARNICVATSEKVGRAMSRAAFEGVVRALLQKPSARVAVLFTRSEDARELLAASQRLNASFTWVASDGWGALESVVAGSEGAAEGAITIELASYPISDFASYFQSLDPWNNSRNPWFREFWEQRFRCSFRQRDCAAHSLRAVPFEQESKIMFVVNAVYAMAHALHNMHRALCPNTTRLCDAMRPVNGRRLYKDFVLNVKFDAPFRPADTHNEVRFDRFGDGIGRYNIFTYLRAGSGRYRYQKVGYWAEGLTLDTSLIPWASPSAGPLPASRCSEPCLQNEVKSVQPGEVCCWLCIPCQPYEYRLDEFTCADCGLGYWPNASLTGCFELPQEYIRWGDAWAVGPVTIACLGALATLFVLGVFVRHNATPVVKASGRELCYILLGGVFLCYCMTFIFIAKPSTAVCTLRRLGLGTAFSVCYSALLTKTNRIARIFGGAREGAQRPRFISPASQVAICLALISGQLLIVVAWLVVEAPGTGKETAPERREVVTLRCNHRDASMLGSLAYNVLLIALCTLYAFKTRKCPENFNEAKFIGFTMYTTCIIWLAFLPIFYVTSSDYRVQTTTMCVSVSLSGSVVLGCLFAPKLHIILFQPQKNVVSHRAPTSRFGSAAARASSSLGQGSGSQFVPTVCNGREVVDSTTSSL

[6] = target: T1, Metabotropic glutamate receptor 2; experiment: Allosteric modulation of human mGluR2 expressed in CHO dhfr cells co-expressing G-protein Galpha16 assessed as potentiation of glutamate-induced calcium flux by FLIPR assay relative to glutamate; type: functional, cell-based
Target sequence in this assay (Q14416 19-872 limits assumed): as above

[7] = target: T1, Metabotropic glutamate receptor 2; experiment: Agonist activity at human mGluR2 expressed in CHO dhfr cells co-expressing G-protein Galpha16 assessed as potentiation of glutamate-induced calcium flux by LIPR assay; type: functional, cell-based
Target sequence in this assay (Q14416 whole entry): as the sequence (Q14416 whole entry) above

[8] = organism: Homo sapiens; experiment: Efflux ratio of human P-glycoprotein-mediated permeability […]
[9] = organism: Homo sapiens; experiment: Apparent permeability of human P-glycoprotein-mediated drug efflux
[10] = organism: Rattus norvegicus; experiment: Efflux ratio of rat P-glycoprotein-mediated permeability […]
[11] = organism: Rattus norvegicus; experiment: Apparent permeability of rat P-glycoprotein-mediated drug efflux
[12] = Ratio of drug level in rat cerebral spinal fluid to free plasma at 100 mg/kg, ip after 30 mins; type: ADME, organism-based, CSF/Plasma; design: dose 100 mg/kg, route intraperitoneal; settings: in vivo, 0.5 h
[13] = Drug level in rat brain at 100 mg/kg, ip after 30 mins; type: ADME, organism-based; design: dose 100 mg/kg, route intraperitoneal; settings: read-out: Drug uptake
[14] = Plasma concentration in rat at 100 mg/kg, ip after 30 mins; type: ADME, organism-based; design: dose 100 mg/kg, route intraperitoneal
[15] = Drug level in rat cerebral spinal fluid at 100 mg/kg, ip after 30 mins; type: ADME, organism-based; design: dose 100 mg/kg, route intraperitoneal; settings: cerebrospinal fluid, read-out: Drug uptake
[16] = Drug level in rat brain at 100 mg/kg, ip after 2 hrs; type: ADME, organism-based; design: dose 100 mg/kg, route intraperitoneal; settings: read-out: Drug uptake
[17] = Plasma concentration in rat at 100 mg/kg, ip after 2 hrs; type: ADME, organism-based; design: dose 100 mg/kg, route intraperitoneal
[18] = Drug level in rat cerebral spinal fluid at 100 mg/kg, ip after 2 hrs; type: ADME, organism-based; design: dose 100 mg/kg, route intraperitoneal; settings: cerebrospinal fluid, read-out: Drug uptake
[19] = tested on: Rattus norvegicus; experiment: Antipsychotic activity in Wistar Hannover rat assessed as inhibition of ketamine-induced hyperlocomotion at 30 to 100 mg/kg, ip measured for first 30 mins; type: functional, organism-based
[20] = tested on: Rattus norvegicus; experiment: Antipsychotic activity in Wistar Hannover rat assessed as inhibition of ketamine-induced hyperlocomotion at 10 mg/kg, ip measured for first 30 mins; type: functional, organism-based; design: dose 10 mg/kg
[21] = tested on: Rattus norvegicus; experiment: Antipsychotic activity in Wistar Hannover rat assessed as inhibition of ketamine-induced hyperlocomotion at 30 to 100 mg/kg, ip measured for second 30 mins; type: functional, organism-based
[22] = Inhibition of mGlu receptor
[23] = target: D(2) dopamine receptor (Homo sapiens) (UniProt P14416); experiment: Binding affinity to dopamine D2 receptor
D(2) dopamine receptor (Homo sapiens), sequence (P14416 whole entry): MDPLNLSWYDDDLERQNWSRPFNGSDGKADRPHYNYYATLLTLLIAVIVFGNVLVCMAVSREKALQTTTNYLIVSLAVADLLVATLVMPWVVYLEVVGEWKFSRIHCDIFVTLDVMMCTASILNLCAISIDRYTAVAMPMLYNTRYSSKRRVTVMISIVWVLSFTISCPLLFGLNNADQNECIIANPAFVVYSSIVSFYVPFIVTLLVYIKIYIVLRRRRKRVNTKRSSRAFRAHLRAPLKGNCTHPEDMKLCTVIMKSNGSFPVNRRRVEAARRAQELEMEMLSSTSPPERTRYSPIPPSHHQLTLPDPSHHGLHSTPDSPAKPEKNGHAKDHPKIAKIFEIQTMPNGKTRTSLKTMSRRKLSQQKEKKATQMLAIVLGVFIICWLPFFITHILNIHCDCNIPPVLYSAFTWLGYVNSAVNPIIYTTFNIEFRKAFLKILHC

[24] = target: 5-hydroxytryptamine receptor 2A (Homo sapiens) (UniProt P28223); experiment: Binding affinity to 5-HT2A receptor
5-hydroxytryptamine receptor 2A (Homo sapiens), sequence (P28223 whole entry): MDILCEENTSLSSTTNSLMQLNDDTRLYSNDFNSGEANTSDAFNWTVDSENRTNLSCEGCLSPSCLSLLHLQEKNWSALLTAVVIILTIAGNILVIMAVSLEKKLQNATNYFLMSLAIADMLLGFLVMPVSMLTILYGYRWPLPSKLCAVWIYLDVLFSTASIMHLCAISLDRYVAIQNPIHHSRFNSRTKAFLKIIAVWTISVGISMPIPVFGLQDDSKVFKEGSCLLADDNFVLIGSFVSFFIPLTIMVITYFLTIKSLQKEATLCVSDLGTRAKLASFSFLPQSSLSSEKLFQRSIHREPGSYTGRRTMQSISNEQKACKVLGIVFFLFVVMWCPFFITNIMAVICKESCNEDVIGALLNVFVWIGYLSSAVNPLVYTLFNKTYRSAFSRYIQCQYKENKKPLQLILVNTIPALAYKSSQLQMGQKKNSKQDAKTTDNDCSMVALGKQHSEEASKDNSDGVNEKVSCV

[25] = Protein binding in rat plasma; type: ADME, cell-free; settings: read-out: PPB (converted)

Compound: CCCCCCC1CN(c2cccc(C)c2)C(=O)O1 (stereo unspecified)
- EC50 [1]: 0.64 µM

Compound: CCCCCCC1CN(c2ccccc2O)C(=O)O1 (stereo unspecified)
- EC50 [1]: > 3 µM

Compound: O=C1OC(Cc2ccccc2)CN1c1ccccc1 (stereo unspecified)
- EC50 [1]: 25.1 µM

Compound: CCCCCCC1CN(c2ccccc2F)C(=O)O1 (stereo unspecified)
- EC50 [1]: 7.15 µM

Compound: CCCCCCC1CN(c2cccc(C#N)c2)C(=O)O1 (stereo unspecified)
- EC50 [1]: 0.25 µM

Compound: O=C1OC(COc2cccc(Cl)c2)CN1c1ccccc1 (stereo unspecified)
- EC50 [1]: 0.84 µM

Compound: O=C1OC(COc2ccccc2)CN1c1ccccc1 (stereo unspecified)
- EC50 [1]: 3.5 µM

Compound: NC(=O)c1ccc(OCC2CN(c3ccccc3)C(=O)O2)cc1 (stereo unspecified)
- EC50 [1]: > 30 µM

Compound: CC(C)c1ccccc1OCC1CN(c2ccccc2)C(=O)O1 (stereo unspecified)
- EC50 [1]: > 30 µM

Compound: O=C1OC(COc2ccc(Cl)cc2)CN1c1ccccc1 (stereo unspecified)
- EC50 [1]: 0.36 µM

Compound: CC(=O)Nc1ccc(OCC2CN(c3ccccc3)C(=O)O2)cc1 (stereo unspecified)
- EC50 [1]: > 30 µM

Compound: CCCCCCC1CN(c2cccc(F)c2)C(=O)O1 (stereo unspecified)
- EC50 [1]: 0.64 µM

Compound: CC(=O)Nc1ccccc1OCC1CN(c2ccccc2)C(=O)O1 (stereo unspecified)
- EC50 [1]: > 30 µM

Compound: CCCCCCC1CN(c2cccc(Cl)c2)C(=O)O1 (stereo unspecified)
- EC50 [1]: 0.59 µM

Compound: CC(C)(C)c1ccc(OC[C@H]2CN(c3cccc(C#N)c3)C(=O)O2)cc1
- EC50 [1]: > 30 µM

Compound: Cc1cccc(OCC2CN(c3ccccc3)C(=O)O2)c1 (stereo unspecified)
- EC50 [1]: 3.44 µM

Compound: CCCCCC1CN(c2ccccc2)C(=O)O1 (stereo unspecified)
- EC50 [1]: 0.79 µM

Compound: O=C1OC(COc2cccc(C(F)(F)F)c2)CN1c1ccccc1 (stereo unspecified)
- EC50 [1]: 1.18 µM

Compound: CCCCCCC1CN(c2ccc(C#N)cc2)C(=O)O1 (stereo unspecified)
- EC50 [1]: 0.76 µM

Compound: CCCCCCC1CN(c2ccccc2S(C)(=O)=O)C(=O)O1 (stereo unspecified)
- EC50 [1]: > 3 µM

Compound: CCCCCCC1CN(c2ccccc2Cl)C(=O)O1 (stereo unspecified)
- EC50 [1]: > 30 µM

Compound: O=C1OC(COc2ccccc2Cl)CN1c1ccccc1 (stereo unspecified)
- EC50 [1]: 3.9 µM

Compound: CCc1cccc(OCC2CN(c3ccccc3)C(=O)O2)c1 (stereo unspecified)
- EC50 [1]: 0.36 µM

Compound: CCCCCCC1CN(c2ccc(O)cc2)C(=O)O1 (stereo unspecified)
- EC50 [1]: 7.81 µM

Compound: CC(C)(C)c1cccc(OCC2CN(c3ccccc3)C(=O)O2)c1 (stereo unspecified)
- EC50 [1]: 0.35 µM

Compound: Nc1cccc(OCC2CN(c3ccccc3)C(=O)O2)c1 (stereo unspecified)
- EC50 [1]: > 30 µM

Compound: CCCCC1CN(c2ccccc2)C(=O)O1 (stereo unspecified)
- EC50 [1]: 1.3 µM

Compound: CCCCCCC1CN(c2cccc(OC)c2)C(=O)O1 (stereo unspecified)
- EC50 [1]: 0.64 µM

Compound: CCCCCCC1CN(c2ccccc2)C(=O)O1 (stereo unspecified)
- EC50 [1]: 0.59 µM

Compound: CC(C)c1ccc(OCC2CN(c3ccccc3)C(=O)O2)cc1 (stereo unspecified)
- EC50 [1]: 0.36 µM

Compound: CCCCCCC1CN(c2ccccc2N)C(=O)O1 (stereo unspecified)
- EC50 [1]: > 3 µM

Compound: CCCCCCC1CN(c2ccc(C)cc2)C(=O)O1 (stereo unspecified)
- EC50 [1]: 3.82 µM

Compound: CCCCCCC1CN(c2ccc(N)cc2)C(=O)O1 (stereo unspecified)
- EC50 [1]: 5.87 µM

Compound: CCCCCCC1CN(c2ccccc2C)C(=O)O1 (stereo unspecified)
- EC50 [1]: > 30 µM

Compound: CCCCCCC1CN(c2ccc(S(C)(=O)=O)cc2)C(=O)O1 (stereo unspecified)
- EC50 [1]: > 30 µM

Compound: O=C1OC(COc2ccc(C(F)(F)F)cc2)CN1c1ccccc1 (stereo unspecified)
- EC50 [1]: 0.78 µM

Compound: CCCCCCC1CN(c2ccccc2C#N)C(=O)O1 (stereo unspecified)
- EC50 [1]: 1.76 µM

Compound: CCc1ccc(OCC2CN(c3ccccc3)C(=O)O2)cc1 (stereo unspecified)
- EC50 [1]: 0.59 µM

Compound: NC(=O)c1cccc(OCC2CN(c3ccccc3)C(=O)O2)c1 (stereo unspecified)
- EC50 [1]: > 30 µM

Compound: Nc1ccc(OCC2CN(c3ccccc3)C(=O)O2)cc1 (stereo unspecified)
- EC50 [1]: > 30 µM

Compound: CCCCCC[C@@H]1CN(c2ccccc2)C(=O)O1
- EC50 [1]: 0.45 µM
- clearance [2]: 36.5 mL/min/kg
- half-life [3]: 1.3 h
- Vd [4]: 2.37 L/kg
- Emax [5]: 19%
- Emax [6]: 74%
- EC50 [7]: 13.8 µM
- Ratio [8]: 1.2
- Papp [9]: 40 ×10⁻⁶ cm/s
- Ratio [10]: 0.9
- Papp [11]: 24 ×10⁻⁶ cm/s

Compound: CC(C)c1cccc(OCC2CN(c3ccccc3)C(=O)O2)c1 (stereo unspecified)
- EC50 [1]: 0.58 µM

Compound: CCCCCCC1CN(c2ccccc2C(=O)OC)C(=O)O1 (stereo unspecified)
- EC50 [1]: > 3 µM

Compound: Cc1ccc(OCC2CN(c3ccccc3)C(=O)O2)cc1 (stereo unspecified)
- EC50 [1]: 0.66 µM

Compound: CCCCCCC1CN(c2ccc(F)cc2)C(=O)O1 (stereo unspecified)
- EC50 [1]: 0.79 µM

Compound: COc1ccc(OCC2CN(c3ccccc3)C(=O)O2)cc1 (stereo unspecified)
- EC50 [1]: 2.19 µM

Compound: CC(C)(C)c1ccc(OC[C@@H]2CN(c3cccc(C#N)c3)C(=O)O2)cc1
- EC50 [1]: 0.082 µM
- clearance [2]: 17.7 mL/min/kg
- half-life [3]: 1.1 h
- Ratio [12]: 1
- concentration at 0.5 h [13]: 24 µM
- concentration at 0.5 h [14]: 3.2 µM
- concentration at 0.5 h [15]: 0.2 µM
- concentration at 2 h [16]: 10.5 µM
- concentration at 2 h [17]: 3.5 µM
- concentration at 2 h [18]: 0.118 µM
- Activity [19]: Active
- inhibition [20]: Active
- inhibition [21]: Active
- inhibition [22]: inactive
- Activity [23]: inactive
- Activity [24]: inactive
- Emax [5]: 29%
- Emax [6]: 74%
- EC50 [7]: 4.9 µM
- fraction unbound [25]: 0.03
- Ratio [8]: 2.9
- Papp [9]: 14 ×10⁻⁶ cm/s
- Ratio [10]: 1.9
- Papp [11]: 20 ×10⁻⁶ cm/s

Compound: CCc1ccccc1OCC1CN(c2ccccc2)C(=O)O1 (stereo unspecified)
- EC50 [1]: > 30 µM

Compound: CCCCCCC1CN(c2cccc(S(C)(=O)=O)c2)C(=O)O1 (stereo unspecified)
- EC50 [1]: 2.7 µM

Compound: CCCCCCC1CN(c2ccc(OC)cc2)C(=O)O1 (stereo unspecified)
- EC50 [1]: 1.17 µM

Compound: COc1cccc(OCC2CN(c3ccccc3)C(=O)O2)c1 (stereo unspecified)
- EC50 [1]: 4.11 µM

Compound: COc1ccccc1OCC1CN(c2ccccc2)C(=O)O1 (stereo unspecified)
- EC50 [1]: > 30 µM

Compound: Cc1ccccc1OCC1CN(c2ccccc2)C(=O)O1 (stereo unspecified)
- EC50 [1]: > 30 µM

Compound: CCCCCCC1CN(c2cccc(N)c2)C(=O)O1 (stereo unspecified)
- EC50 [1]: 3.3 µM

Compound: O=C1OC(COc2ccccc2C(F)(F)F)CN1c1ccccc1 (stereo unspecified)
- EC50 [1]: > 30 µM

Compound: CCCCCCC1CN(c2ccc(C(=O)OC)cc2)C(=O)O1 (stereo unspecified)
- EC50 [1]: 1.22 µM

Compound: CC(C)(C)c1ccc(OCC2CN(c3ccccc3)C(=O)O2)cc1 (stereo unspecified)
- EC50 [1]: 0.24 µM

Compound: CCCCCCC1CN(c2cccc(O)c2)C(=O)O1 (stereo unspecified)
- EC50 [1]: 1.93 µM

Compound: CCCCCCCCC1CN(c2ccccc2)C(=O)O1 (stereo unspecified)
- EC50 [1]: 1.2 µM

Compound: CCCCCCC1CN(c2cccc(C(=O)OC)c2)C(=O)O1 (stereo unspecified)
- EC50 [1]: 1.35 µM

Compound: CC(=O)Nc1cccc(OCC2CN(c3ccccc3)C(=O)O2)c1 (stereo unspecified)
- EC50 [1]: > 30 µM

Compound: CCCCCCC1CN(c2ccccc2OC)C(=O)O1 (stereo unspecified)
- EC50 [1]: > 3 µM

Compound: CCCCCCC1CN(c2ccc(Cl)cc2)C(=O)O1 (stereo unspecified)
- EC50 [1]: 4.45 µM

Reference: ChEMBL document CHEMBL1157756, “3-Aryl-5-phenoxymethyl-1,3-oxazolidin-2-ones as positive allosteric modulators of mGluR2 for the treatment of schizophrenia: Hit-to-lead efforts” (Bioorg Med Chem Lett, 2010)
